According to PMC6832239, “The Effects of a Novel Series of KTTKS Analogues on Cytotoxicity and Proteolytic Activity” (Molecules, 2019):
Like-named read-outs stand apart in the source and are kept apart here. Residues, ends and D or L forms follow the SMILES beside them.

How the values were obtained:
[1] = Viability of fibroblast cells, MTT assay; type: cell-based, Human; conditions: human, primary dermal fibroblast cells, 24 h, MTT, ± 2, read-out: Viability of fibroblast cells
Experimental: Viability of fibroblast cells was examined with the use of the MTT assay. MTT, a yellow tetrazole, is reduced to purple formazan only in living cells. Absorbance of the coloured solution was measured by a spectrophotometer.
These studies were performed on primary dermal fibroblasts cells. The cells were maintained in DMEM supplemented with 10% fetal bovine serum (FBS), 2 mM glutamin, 50 U/mL penicillin and […] streptomycin at 37 °C in a 5% CO2 incubator. For experiments, cells cultures were plated at a density of 1 × 10^6/well in six-well culture plates (Costar, St. Louis, MO, USA) in 2 mL of growth medium. Cells reached about 80% of confluency at day 2 were used for the assays.
Toxicity of the tested substances was determined using an MTT [3-(4,5-dimethylthiazol-2-yl)-2,5-diphenyltetrazolium bromide)] assay. Palmitoyl and lipoyl peptides were dissolved in DMSO (dimethyl sulfoxide), the other peptides in DMEM, and added to the cell culture medium. Simultaneously, the same concentrations of DMSO without peptides were added to cells, serving as controls. The final peptide concentrations were: 1 μM, 10 μM, and 100 μM. After 24 h incubation, the cells cultured with the tested compounds were washed with phosphate-buffered saline (PBS) and then incubated for 4 h in 2 mL of MTT solution (5 mg/mL). After removing the medium, the cells were lysed in 200 μL of DMSO with 20 μL of Sorensen’s buffer (pH 10.5, 0.1 mol/L glycine with 0.1 mol/L NaCl). The absorbance of converted dye in living cells was measured at a wavelength of 570 nm. The mean values ± SD from three independent experiments done in duplicate are presented.

[2] = target: T1, urokinase (Homo sapiens, UniProt P00749); test: Amidolytic activity of urokinase (chromogenic substrate pyro-Glu-Gly-Arg-pNA); type: biochemical
T1 construct: purchased Sigma (Schnelldorf, Germany)
Experimental: (§1) The determination of amidolytic activity was performed as previously described by Okada. A detailed description of the method is given below: 0.2 mL of the examined peptides (0.15 M NaCl as contro), a buffer, and 0.1 mL of enzyme solution were mixed. The final peptide concentrations were: 0.2 mM, 2 mM, and 20 mM. The mixture was incubated at 37 °C for 3 min; then the synthetic substrate solution was added in the same buffer. After 20 min of incubation, the reaction was stopped by adding 0.1 mL of 50% acetic acid and the absorbance of the released p-nitroaniline was measured at 405 nm. The mean values from three independent experiments done in duplicate are presented. A method error of 5% was adopted as statistical error. IC50 value was considered as the concentration of inhibitor that reduces absorbance by 50%, compared with absorbance measured under the same conditions without an inhibitor. IC50 was calculated mathematically by extrapolation using a linear plot. IC50 values are presented in Table 1 and Table 2, and graphically in Figure 1.
(§2) The buffers and the enzyme solutions included: • Tris buffer—0.6 mL (pH 8.8), enzyme: urokinase (50 units/mL), synthetic substrate: pyro-Glu-Gly-Arg-pNA·HCl (0.1 mL, 3 mM); • Tris buffer—0.5 mL (pH 8.4), enzyme: thrombin (1 units/mL), synthetic substrate: H-D-Phe-Pip-Arg-pNA (0.2 mL, 0.75 mM); • Tris buffer—0.5 mL (pH 7.4), enzyme: plasmin (0.4 units/mL), synthetic substrate: H-D-Val-Leu-Lys-pNA (0.2 mL, 3 mM); • Borate buffer—0.5 mL (pH 7.5), enzyme: trypsin (0.4 units/mL), synthetic substrate: Bzl-L-Arg-pNA·HCl (0.2 mL, 8 mM); • Tris buffer—0.6 mL (pH 9.0), enzyme: kallikrein (3 units/mL), synthetic substrate: H-D-Val-Leu-Arg-pNA·2HCl (0.1 mL, 75 mM); • Tris buffer—0.6 mL (pH 8.4), enzyme: t-PA ([…]), synthetic substrate: H-D-Ile-Pro-Arg-pNA (0.1 mL, 10 mM) • Tris buffer—0.6 mL (pH 9.0), enzyme: chymotrypsin (0.4 units/mL), synthetic substrate: Suc-Phe-pNA (0.2 mL, 8 mM)

[3] = target: T2, thrombin (Bos taurus, UniProt P00735); test: Amidolytic activity of thrombin (chromogenic substrate H-D-Phe-Pip-Arg-pNA); type: biochemical
T2 construct: purchased Lubelska Wytwórnia Szczepionek (Lublin, Poland)
Experimental: The determination of amidolytic activity was performed as previously described by Okada. A detailed description of the method is given below: 0.2 mL of the examined peptides (0.15 M NaCl as contro), a buffer, and 0.1 mL of enzyme solution were mixed. The final peptide concentrations were: 0.2 mM, 2 mM, and 20 mM. The mixture was incubated at 37 °C for 3 min; then the synthetic substrate solution was added in the same buffer. […] The mean values from three independent experiments done in duplicate are presented. A method error of 5% was adopted as statistical error. […] IC50 was calculated mathematically by extrapolation using a linear plot.

[4] = target: T3, plasmin (Homo sapiens, UniProt P00747); test: Amidolytic activity of plasmin (chromogenic substrate H-D-Val-Leu-Lys-pNA); type: biochemical
T3 construct: purchased Chromogenix (Milano, Italy)
Experimental: as §1, §2

[5] = amidolytic activity, Tris pH 8.8, 37 °C, IC50 by extrapolation using a linear plot, error 5%, read-out: IC50 Urokinase
[6] = amidolytic activity, Tris pH 8.4, 37 °C, IC50 by extrapolation using a linear plot, error 5%, read-out: IC50 Thrombin
[7] = amidolytic activity, Tris pH 7.4, 37 °C, IC50 by extrapolation using a linear plot, error 5%, read-out: IC50 Plasmin
[8] = converted from IC50 of Table 1, read-out: -logIC50 Plasmin (converted)

T3 sequence (P00747 581-810 limits assumed): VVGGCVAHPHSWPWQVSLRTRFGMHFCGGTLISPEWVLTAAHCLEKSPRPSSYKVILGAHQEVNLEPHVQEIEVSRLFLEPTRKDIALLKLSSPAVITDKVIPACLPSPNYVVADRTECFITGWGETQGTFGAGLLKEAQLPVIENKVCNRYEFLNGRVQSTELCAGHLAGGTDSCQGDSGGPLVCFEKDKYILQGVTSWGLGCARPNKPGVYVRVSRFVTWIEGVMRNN
T3 sequence (P00747 97-580 partner limits assumed): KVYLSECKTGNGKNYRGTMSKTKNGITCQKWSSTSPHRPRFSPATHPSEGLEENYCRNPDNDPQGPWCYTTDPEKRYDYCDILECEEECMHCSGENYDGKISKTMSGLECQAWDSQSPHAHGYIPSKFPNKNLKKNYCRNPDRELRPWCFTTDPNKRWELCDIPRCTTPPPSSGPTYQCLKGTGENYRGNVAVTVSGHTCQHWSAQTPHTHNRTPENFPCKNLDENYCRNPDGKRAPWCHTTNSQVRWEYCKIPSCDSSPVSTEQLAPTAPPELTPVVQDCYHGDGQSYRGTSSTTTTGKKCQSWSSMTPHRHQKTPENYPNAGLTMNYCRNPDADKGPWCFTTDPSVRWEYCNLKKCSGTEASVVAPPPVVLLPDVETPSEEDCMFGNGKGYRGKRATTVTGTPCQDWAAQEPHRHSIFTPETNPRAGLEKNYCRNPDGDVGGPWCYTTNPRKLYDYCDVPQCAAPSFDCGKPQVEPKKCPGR

Molecule	IC50 [2, 5] [µM]	IC50 ([2]; converted from IC50 of Table 1, read-out: -logIC50 Urokinase (converted)) [µM]	IC50 [3, 6] [µM]	IC50 [4, 7] [µM]	IC50 [4, 8] [µM]	level of inhibition of urokinase activity [2]	level of inhibition of thrombin activity [3]	level of inhibition of plasmin activity [4]	IC50 ([3]; converted from IC50 of Table 1, read-out: -logIC50 Thrombin (converted)) [µM]	IC50 ([4]; amidolytic activity, palmitic peptides, read-out: IC50 plasmin (text, micromolar)) [µM]	viability at 24 h, 1 µmol/L [1] [%]	viability at 24 h, 10 µmol/L [1] [%]	viability at 24 h, 100 µmol/L [1] [%]	IC50 [2] [µM]
CCCCCCCCCCCCCCCC(=O)N[C@@H](CCCCN)C(=O)N[C@H](C(=O)N[C@H](C(=O)N[C@@H](CCCNC(=N)N)C(=O)N[C@@H](CO)C(=O)O)[C@@H](C)O)[C@@H](C)O [Peptide 12, Pal-Lys-Thr-Thr-Arg-Ser-OH] (HELM PEPTIDE1{[CCCCCCCCCCCCCCCC(=O)[*:2]].K.T.T.R.S}$$$$V2.0)	–	–	–	–	–	–	–	–	–	–	103	98	99	–
Ac-KTTRS-OH [Peptide 10, Ac-Lys-Thr-Thr-Arg-Ser-OH]	–	4790	2890 ± 140	2240 ± 110	–	–	–	–	–	–	104	100	94	–
H-KTTKS-NH2 [Peptide 5, H-Lys-Thr-Thr-Lys-Ser-NH2]	9150 ± 460	–	7040 ± 350	530 ± 26	–	–	–	–	–	–	91	91	100	–
Ac-KTTKS-OH [Peptide 2, Ac-Lys-Thr-Thr-Lys-Ser-OH]	3880 ± 190	–	2200 ± 110	2780 ± 140	–	–	–	–	–	–	98	88	82	–
H-KTTRS-OH [Peptide 9, H-Lys-Thr-Thr-Arg-Ser-OH]	–	–	4010 ± 200	630 ± 31	–	–	–	–	–	–	93	103	101	–
C[C@@H](O)[C@H](NC(=O)[C@H](CCCCN)NC(=O)CCCCC1CCSS1)C(=O)N[C@H](C(=O)N[C@@H](CCCNC(=N)N)C(=O)N[C@@H](CO)C(=O)O)[C@@H](C)O (mixture of isomers) [Peptide 11, Lip-Lys-Thr-Thr-Arg-Ser-OH]	–	–	10900 ± 540	240 ± 12	–	–	–	–	–	–	102	105	98	–
CCCCCCCCCCCCCCCC(=O)N[C@@H](CCCCN)C(=O)N[C@H](C(=O)N[C@H](C(=O)N[C@@H](CCCCN)C(=O)N[C@@H](CO)C(N)=O)[C@@H](C)O)[C@@H](C)O [Peptide 8, Pal-Lys-Thr-Thr-Lys-Ser-NH2] (HELM PEPTIDE1{[CCCCCCCCCCCCCCCC(=O)[*:2]].K.T.T.K.S.[am]}$$$$V2.0)	3120 ± 160	–	–	–	–	–	–	–	–	< 200	96	83	83	–
CCCCCCCCCCCCCCCC(=O)N[C@@H](CCCCN)C(=O)N[C@H](C(=O)N[C@H](C(=O)N[C@@H](CCCNC(=N)N)C(=O)N[C@@H](CO)C(N)=O)[C@@H](C)O)[C@@H](C)O [Peptide 16, Pal-Lys-Thr-Thr-Arg-Ser-NH2] (HELM PEPTIDE1{[CCCCCCCCCCCCCCCC(=O)[*:2]].K.T.T.R.S.[am]}$$$$V2.0)	–	–	–	–	–	–	–	–	–	–	104	114	115	2370 ± 120
CCCCCCCCCCCCCCCC(=O)N[C@@H](CCCNC(=N)N)C(=O)N[C@H](C(=O)N[C@H](C(=O)N[C@@H](CCCCN)C(=O)N[C@@H](CO)C(N)=O)[C@@H](C)O)[C@@H](C)O [Peptide 32, Pal-Arg-Thr-Thr-Lys-Ser- NH2] (HELM PEPTIDE1{[CCCCCCCCCCCCCCCC(=O)[*:2]].R.T.T.K.S.[am]}$$$$V2.0)	–	–	–	–	–	–	–	–	–	–	104	113	118	–
H-RTTRS-OH [Peptide 17, H-Arg-Thr-Thr-Arg-Ser-OH]	–	–	3890 ± 190	280 ± 14	288	–	–	–	–	–	89	99	115	–

More lines, main results first:

IC50 [2, 5] [µM]	IC50 ([2]; converted from IC50 of Table 1, read-out: -logIC50 Urokinase (converted)) [µM]	IC50 [3, 6] [µM]	IC50 [4, 7] [µM]	IC50 [4, 8] [µM]	level of inhibition of urokinase activity [2]	level of inhibition of thrombin activity [3]	level of inhibition of plasmin activity [4]	IC50 ([3]; converted from IC50 of Table 1, read-out: -logIC50 Thrombin (converted)) [µM]	IC50 ([4]; amidolytic activity, palmitic peptides, read-out: IC50 plasmin (text, micromolar)) [µM]	Molecule	viability at 24 h, 1 µmol/L [1] [%]	viability at 24 h, 10 µmol/L [1] [%]	viability at 24 h, 100 µmol/L [1] [%]	IC50 [2] [µM]
260 ± 13	–	–	–	–	–	–	–	–	–	CCCCCCCCCCCCCCCC(=O)N[C@@H](CCCNC(=N)N)C(=O)N[C@H](C(=O)N[C@H](C(=O)N[C@@H](CCCNC(=N)N)C(=O)N[C@@H](CO)C(N)=O)[C@@H](C)O)[C@@H](C)O [Peptide 24, Pal-Arg-Thr-Thr-Arg-Ser-NH2] (HELM PEPTIDE1{[CCCCCCCCCCCCCCCC(=O)[*:2]].R.T.T.R.S.[am]}$$$$V2.0)	94	104	97	–
3240 ± 160	–	3120 ± 160	8810 ± 440	8910	–	–	–	–	–	Ac-RTTRS-OH [Peptide 18, Ac-Arg-Thr-Thr-Arg-Ser-OH]	88	103	107	–
–	–	–	–	–	above 90%	above 90%	above 90%	–	–	CCCCCCCCCCCCCCCC(=O)N[C@@H](CCCNC(=N)N)C(=O)N[C@H](C(=O)N[C@H](C(=O)N[C@@H](CCCCN)C(=O)N[C@@H](CO)C(=O)O)[C@@H](C)O)[C@@H](C)O [Peptide 28, Pal-Arg-Thr-Thr-Lys-Ser-OH] (HELM PEPTIDE1{[CCCCCCCCCCCCCCCC(=O)[*:2]].R.T.T.K.S}$$$$V2.0)	104	103	106	–
–	–	–	2120 ± 110	–	–	–	–	4270	–	C[C@@H](O)[C@H](NC(=O)[C@H](CCCNC(=N)N)NC(=O)CCCCC1CCSS1)C(=O)N[C@H](C(=O)N[C@@H](CCCCN)C(=O)N[C@@H](CO)C(=O)O)[C@@H](C)O (mixture of isomers) [Peptide 27, Lip-Arg-Thr-Thr-Lys-Ser-OH]	105	91	80	–
–	–	1840 ± 92	1010 ± 51	–	–	–	–	–	–	C[C@@H](O)[C@H](NC(=O)[C@H](CCCNC(=N)N)NC(=O)CCCCC1CCSS1)C(=O)N[C@H](C(=O)N[C@@H](CCCNC(=N)N)C(=O)N[C@@H](CO)C(=O)O)[C@@H](C)O (mixture of isomers) [Peptide 19, Lip-Arg-Thr-Thr-Arg-Ser-OH]	79	81	90	–
